Experimental data taken from US9272056B2, “Method to produce hyperpolarised carboxylates” (GE Healthcare AS, priority 2005, dated 2016).

Assay: T1 relaxation in human full blood
Format: physicochemical
Details: human full blood at 37° C.
Text: The amount of alanine, bicarbonate and lactate is dependent on the metabolic status of the tissue under investigation.

## CC(=O)[13C](=O)O [^13C-pyruvate]
  T1 relaxation: about 42 s
